The test system of experiment [1] is Oxyticha nova G-quadruplex (DNA, G4) GGGGTTTTGGGG
The experiment can be described thus: UV-vis absorption titration. Conditions: 100 mM NaCl; 10 mM Tris-HCl pH 7.5, 25 °C; fit with [DNA] in base pairs, binding size s = 1; per base.

The test system is the same in experiment [2]. The experiment can be described thus: CD melting. Conditions: 100 mM NaCl; 10 mM Tris-HCl pH 7.5; no change of Tm 59.2 °C; binds by end-stacking.
The subject of experiment [3] is HT8 (DNA, G4) AGGGTTATGGTTAGGGTTAGGG
The experiment can be described thus: time-resolved luminescence at 620 nm. Conditions: 100 mM NaCl; 10 mM Tris-HCl pH 7.5; lifetimes 1046 and 151.2 ns.

The subject of experiment [4] is HT G-quadruplex (DNA, G4) AGGGTTAGGGTTAGGGTTAGGG
Kind of experiment: UV-vis absorption titration. The conditions noted are these: 100 mM NaCl; 10 mM Tris-HCl pH 7.5, 25 °C; fit with [DNA] in base pairs, binding size s = 2.3; per base.

The test system of experiment [5] is ds-DNA (HT with complementary sequence) (DNA, duplex) AGGGTTAGGGTTAGGGTTAGGG/CCCTAACCCTAACCCTAACCCT
Kind of experiment: time-resolved luminescence at 620 nm. Conditions: 100 mM NaCl; 10 mM Tris-HCl pH 7.5; lifetimes 492 and 88.1 ns.

Experiment [6] has as its system HT G-quadruplex (DNA, G4) AGGGTTAGGGTTAGGGTTAGGG
The experiment can be described thus: CD melting at 295 nm. The conditions noted are these: 100 mM NaCl; 10 mM Tris-HCl pH 7.5; derived from two Tm (56.6, 61.0); highest compound concentration, ratio only in Figure 2D.

The test system of experiment [7] is HT10 (DNA, G4) AGGGTTAGGTTTAGGGTTAGGG
Kind of experiment: time-resolved luminescence at 620 nm. Conditions: 100 mM NaCl; 10 mM Tris-HCl pH 7.5; lifetimes 430.7 and 61.4 ns.

Consider one molecule from paper PMC9814642 (2021).

As usually defined, the ΔTm is the shift of the melting midpoint relative to a reference.

Consider `[Ru+2].c1ccc2nc3c4cccnc4c4ncccc4c3nc2c1.c1cnc2c(c1)ccc1cccnc12.c1cnc2c(c1)ccc1cccnc12`, for which the values for the K in experiment [1] and in experiment [4] were 990000 M⁻¹ and 5.1e+06 M⁻¹, respectively. Further, the results for the ΔTm in experiment [2] and in experiment [6] were 0 °C and 4.4 °C, respectively. The binding entry in experiment [3], in experiment [5] and in experiment [7] was “yes” in each case.
